In assay [1] the target is MAPK14 (human) (UniProt Q16539). The conditions noted are these: pbmc.
Assay [2] has the same target. The conditions noted are these: pbmc. The source holds these as a separate data set.
The next assay addresses MAPK14 (UniProt Q16539).
Assay [3] addresses MAPK14, Q16539 [p38 beta Inhibition].
Assay [4] concerns the target MAPK14 (human) (UniProt Q16539). As to conditions: pbmc. This is another data set of the same source.
A further assay has as its system MAPK14 (dog). The conditions noted are these: pbmc.
Assay [5] concerns the target MAPK14 (human) (UniProt Q16539). As to conditions: pbmc. The source holds these as a separate data set.
The test system of the next assay is MAPK14 (rat). As to conditions: pbmc.

Sequence of MAPK14 (human) (Q16539 whole entry, looked up): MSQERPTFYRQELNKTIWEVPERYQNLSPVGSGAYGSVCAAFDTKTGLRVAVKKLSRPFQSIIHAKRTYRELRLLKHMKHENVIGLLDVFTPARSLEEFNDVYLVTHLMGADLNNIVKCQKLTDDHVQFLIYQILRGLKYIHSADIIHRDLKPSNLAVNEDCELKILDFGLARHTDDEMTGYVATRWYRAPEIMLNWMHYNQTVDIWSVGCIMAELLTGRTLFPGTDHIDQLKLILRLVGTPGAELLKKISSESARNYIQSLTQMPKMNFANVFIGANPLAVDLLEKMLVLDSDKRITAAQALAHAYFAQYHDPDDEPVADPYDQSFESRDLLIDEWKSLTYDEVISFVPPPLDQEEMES
Sequence of MAPK14 (Q16539 whole entry, looked up): as above
Sequence of MAPK14, Q16539 [p38 beta Inhibition] (Q16539 whole entry, looked up, change not shown): as the sequence (Q16539 whole entry, looked up) above

`OCCC#Cc1nc(-c2ccc(F)cc2)c(-c2ccncc2)n1CCCc1ccccc1`: the IC50 – broadly, the point on the concentration scale where inhibition reaches its midpoint – came out at 3 nM at MAPK14 (human) [1]; 11 nM on MAPK14 (human) [2]; 1000 nM against MAPK14; 11 µM in assay [3]; 13 nM against MAPK14 (human) [4]; 15 nM in the assay on MAPK14 (dog). The values for the IC50 against MAPK14 (human) [5] and in the assay with MAPK14 (rat) were 6 nM and 580 nM, respectively.
